In patent publication USRE39130E1 (Bayer Cropscience K.K., priority 1986, dated 2006):

Assays:
[1] = test system: organophosphate-resistant smaller brown planthopper (Laodelphax stiatellus); test: Test on planthoppers: smaller brown planthopper (spray on rice plants, kill ratio); format: in vivo; conditions: sprayed rice plants, kill ratio two days later, compared with W-1, W-2 and Q-1
Description: (§1) In the same way as above, the kill ratio on white-backed planthopper (Sogatella furcifera) and organophosphate-resistant smaller brown planthopper (Laodelphax stiatellus) was calculated.

[2] = test system: white-backed planthopper (Sogatella furcifera); test: Test on planthoppers: white-backed planthopper (spray on rice plants, kill ratio); format: in vivo; conditions: sprayed rice plants, kill ratio two days later, compared with W-1, W-2 and Q-1
Description: as §1

[3] = test system: organophosphate-resistant green rice leafhoppers (Nephotettix cincticeps); test: Test on organophosphate-resistant green rice leafhoppers (spray on rice plants, kill ratio); conditions: sprayed rice plants, 30 female imagoes, kill ratio two days later; compared with comparison compounds W-1, W-2 and Q 2
Description: Test on organophosphate-resistant green rice leafhoppers (Nephotettix cincticeps)
Preparation of a test chemical
Solvent: 3 parts by weight of xylene
Emulsifier: 1 part by weight of polyoxyethylene alkylphenyl ether
A water dilution of each of the reactive compounds in a predetermined concentration prepared as above was sprayed onto rice plants, about 10 cm tall, grown in pots having a diameter of 12 cm at a rate of 10 ml per pot. […] The pots were placed in a constant-temperature chamber. Two days later, the number of dead insects was examined, and the kill ratio was calculated.

[4] = test system: green peach aphids (Myzus persicae) having resistance to organophosphate and carbamate chemicals; test: Test on green peach aphids having resistance to organophosphate and carbamate chemicals (spray on eggplant seedlings, kill ratio); format: in vivo; conditions: sprayed eggplant seedlings, 28° C., kill ratio twenty-four hours after spraying; compared with W-1, W-2 and Q-2
Excerpt: Test on green peach aphids (Myzus persicae) having resistance to organophosphate and carbamate chemicals
Bred green peach aphids having resistance to organophsophates and carbamates were inoculated on eggplant (black elongate variety) seedlings, about 20 cm tall, grown in unglazed pots having a diameter of 15 cm at a rate of about 200 per seedling. One day after the inoculation, a water dilution of each of the active compounds in a predetermined concentration prepared as in Example 6 was sprayed in sufficient amounts by means of a spray gun. After the spraying, the pots were left to stand in a greenhouse kept at 28° C. Twenty-four hours after the spraying, the kill ratio was calculated. The above test was carried out through two replicates.

| SMILES | efficacy (kill ratio) compared with comparison compounds [1] | efficacy (kill ratio) compared with comparison compounds [2] | efficacy (kill ratio) compared with comparison compounds [3] | efficacy (kill ratio) compared with comparison compounds [4] |
| --- | --- | --- | --- | --- |
| N#C/N=C1\NCCN1Cc1ccc(Cl)nc1 [Compound 5, 1-(2-chloro-5-pyridylmethyl)-2-cyanoiminoimidazolidine] | considerably better efficacy | considerably better efficacy | considerably better efficacy | considerably better efficacy |
| Cc1cnc(CN2CCN/C2=N\C#N)cn1 [Compound 54, 1-(2-methyl-5-pyrazinylmethyl)-2-cyanoiminoimidazolidine] |  |  | considerably better efficacy |  |
| N#C/N=C1\SCCN1Cc1cnc(Cl)s1 [Compound 69] |  |  | considerably better efficacy | considerably better efficacy |
